Measured values as given in patent US11655247B2, “Nanoluc suicide substrates” (PROMEGA CORPORATION, priority 2018, dated 2023).

System: NanoLuc-HaloTag
Assay: Direct and two-step labeling with azide-DBCO pair, fluorescence imaging on SDS/PAGE gel
Assay type: biochemical
Conditions: 50 uM compound 1 hour, then 100 uM DBCO-FAM 4 hours
Method: In Example 26, a dye-appended suicide substrate is shown by fluorescence imaging to label NanoLuc. In this example, a suicide substrate with an appended azide is shown to label a NanoLuc-HaloTag protein in a two-step procedure in which the second step is copper-free click chemistry with a DBCO appended FAM dye. […] Structures of the compounds used in this example are illustrated in FIG. 10A.
0.5 uM NanoLuc-HaloTag in 100 mM Tris pH 8.0 was incubated for 1 hour with 50 uM of: Tube 1—JRW-1505; Tube 2—FAM-HaloTag ligand; Tube 3—JRW-0926; Tube 4—JRW-0975; Tube 5—JRW-1022; and Tube 6—SE-azide. In the second step, 100 uM DBCO-FAM was incubated for 4 hours in Tubes 1, 4, 5, and 6, followed by SDS/PAGE gel for all samples (FIG. 10B). The fluorescence (473ex) (Cy2 filter set) of bands corresponding to the size of NanoLuc-HaloTag was read and quantified.
In a second experiment, 1.5 uM NanoLuc-HaloTag in 100 mM Tris (or DPBS buffer) pH 8.0 was incubated with 50 uM of JRW-0975, FAM-HaloTag ligand, JRW-0926, JRW-1022, or SE-azide for 1 hour. In the second step, 100 uM DBCO-FAM was incubated for 4 hours with tubes 3, 4, and 5, followed by SDS/PAGE gel (FIG. 11A). The fluorescence (473ex) (Cy2 filter set) of bands corresponding to the size of NanoLuc-HaloTag was read and quantified (FIG. 11B).

Structure (SMILES): [N-]=[N+]=NCCOCCOCCC(=O)NCCOCCOCCCCCCCl [JRW-1505, 3-(2-(2-azidoethoxy)ethoxy)-N-(2-(2-((6-chlorohexyl)oxy)ethoxy)ethyl)propanamide]
- Two-step labeling with DBCO-FAM: two-step labeling occurs
